In article PMC8807399, “Synthesis, Characterization, and in vivo Evaluation of a Novel Potent Autotaxin-Inhibitor” (Frontiers in Pharmacology, 2022):

Tests used:
[1] = In vitro microsomal stability, mouse; type: in vitro ADME; settings: mouse microsomes, 1 µM; value of 10 = low clearance, essentially below detection limit
Experimental: Incubations of a test compound at a concentration of 1 µM with microsomes (0.5 mg/ml) from the appropriate species (human, mouse, or rat) plus cofactor NADPH were performed in 96-well plates at 37°C on a TECAN automated liquid handling system (Tecan Group Ltd., Männedorf, Switzerland). After pre-incubation of the test compound with the microsomes for 10 min, the enzymatic reaction was started by the addition of cofactors. Aliquots of the incubations are removed at 1, 3, 6, 9, 15, 25, 35, and 45 min and are then quenched with 1:3 (v/v) acetonitrile containing internal standards. Samples were then cooled and centrifuged before analysis of the supernatant by LC-MS/MS. Logarithmic Peak area ratios (test compound peak area/internal standard peak area) were plotted against incubation time and a linear fit made to the data with emphasis upon the initial rate of compound disappearance. The slope of the fit was then used to calculate the intrinsic clearance: Clint (µL/min/mg protein) = −slope (min-1) * 1,000/[protein concentration (mg/ml)].

[2] = molecular target: T1, 5HT2B (Homo sapiens, UniProt P41595); experiment: Off-target screen 5HT2B; type: binding; settings: 10 µM; single point, duplicates
T1 construct: purchased Eurofins CEREP SA
T1 sequence (P41595 whole entry): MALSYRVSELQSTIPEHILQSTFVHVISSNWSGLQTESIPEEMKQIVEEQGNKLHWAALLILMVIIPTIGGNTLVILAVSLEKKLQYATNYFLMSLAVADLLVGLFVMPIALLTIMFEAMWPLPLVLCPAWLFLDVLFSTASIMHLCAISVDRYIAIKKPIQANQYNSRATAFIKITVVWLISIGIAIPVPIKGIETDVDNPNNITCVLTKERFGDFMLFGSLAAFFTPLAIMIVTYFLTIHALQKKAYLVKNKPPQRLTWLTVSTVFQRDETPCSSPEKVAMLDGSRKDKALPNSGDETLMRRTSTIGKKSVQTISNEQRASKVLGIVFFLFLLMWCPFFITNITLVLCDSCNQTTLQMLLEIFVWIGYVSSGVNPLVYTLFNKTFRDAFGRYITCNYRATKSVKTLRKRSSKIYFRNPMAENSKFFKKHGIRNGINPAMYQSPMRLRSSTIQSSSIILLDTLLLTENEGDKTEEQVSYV

[3] = molecular target: T2, Dopamine D1 receptor (Homo sapiens, UniProt P21728); experiment: Off-target screen Dopamine D1; type: binding; settings: 10 µM; single point, duplicates
T2 construct: purchased Eurofins CEREP SA
T2 sequence (P21728 whole entry): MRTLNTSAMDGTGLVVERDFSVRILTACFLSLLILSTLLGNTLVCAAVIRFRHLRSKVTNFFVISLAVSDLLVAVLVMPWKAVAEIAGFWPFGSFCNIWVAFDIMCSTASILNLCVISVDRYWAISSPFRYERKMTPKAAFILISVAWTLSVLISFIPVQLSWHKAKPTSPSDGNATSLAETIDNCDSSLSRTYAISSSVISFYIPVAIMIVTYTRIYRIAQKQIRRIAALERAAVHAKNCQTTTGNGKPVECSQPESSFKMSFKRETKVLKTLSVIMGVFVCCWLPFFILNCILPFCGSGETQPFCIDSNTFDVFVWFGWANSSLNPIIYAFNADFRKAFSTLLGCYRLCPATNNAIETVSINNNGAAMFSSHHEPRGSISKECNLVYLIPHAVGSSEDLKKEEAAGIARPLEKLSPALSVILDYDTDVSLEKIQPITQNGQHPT

[4] = molecular target: T3, GSK-3B (Homo sapiens, UniProt P49841); experiment: Off-target screen GSK-3B; type: biochemical; settings: 10 µM; single point, duplicates
T3 construct: purchased Eurofins CEREP SA

[5] = molecular target: T4, HDAC6 (Homo sapiens, UniProt Q9UBN7); experiment: Off-target screen HDAC6; type: biochemical; settings: 10 µM; single point, duplicates
T4 construct: purchased Eurofins CEREP SA
T4 sequence (Q9UBN7 whole entry): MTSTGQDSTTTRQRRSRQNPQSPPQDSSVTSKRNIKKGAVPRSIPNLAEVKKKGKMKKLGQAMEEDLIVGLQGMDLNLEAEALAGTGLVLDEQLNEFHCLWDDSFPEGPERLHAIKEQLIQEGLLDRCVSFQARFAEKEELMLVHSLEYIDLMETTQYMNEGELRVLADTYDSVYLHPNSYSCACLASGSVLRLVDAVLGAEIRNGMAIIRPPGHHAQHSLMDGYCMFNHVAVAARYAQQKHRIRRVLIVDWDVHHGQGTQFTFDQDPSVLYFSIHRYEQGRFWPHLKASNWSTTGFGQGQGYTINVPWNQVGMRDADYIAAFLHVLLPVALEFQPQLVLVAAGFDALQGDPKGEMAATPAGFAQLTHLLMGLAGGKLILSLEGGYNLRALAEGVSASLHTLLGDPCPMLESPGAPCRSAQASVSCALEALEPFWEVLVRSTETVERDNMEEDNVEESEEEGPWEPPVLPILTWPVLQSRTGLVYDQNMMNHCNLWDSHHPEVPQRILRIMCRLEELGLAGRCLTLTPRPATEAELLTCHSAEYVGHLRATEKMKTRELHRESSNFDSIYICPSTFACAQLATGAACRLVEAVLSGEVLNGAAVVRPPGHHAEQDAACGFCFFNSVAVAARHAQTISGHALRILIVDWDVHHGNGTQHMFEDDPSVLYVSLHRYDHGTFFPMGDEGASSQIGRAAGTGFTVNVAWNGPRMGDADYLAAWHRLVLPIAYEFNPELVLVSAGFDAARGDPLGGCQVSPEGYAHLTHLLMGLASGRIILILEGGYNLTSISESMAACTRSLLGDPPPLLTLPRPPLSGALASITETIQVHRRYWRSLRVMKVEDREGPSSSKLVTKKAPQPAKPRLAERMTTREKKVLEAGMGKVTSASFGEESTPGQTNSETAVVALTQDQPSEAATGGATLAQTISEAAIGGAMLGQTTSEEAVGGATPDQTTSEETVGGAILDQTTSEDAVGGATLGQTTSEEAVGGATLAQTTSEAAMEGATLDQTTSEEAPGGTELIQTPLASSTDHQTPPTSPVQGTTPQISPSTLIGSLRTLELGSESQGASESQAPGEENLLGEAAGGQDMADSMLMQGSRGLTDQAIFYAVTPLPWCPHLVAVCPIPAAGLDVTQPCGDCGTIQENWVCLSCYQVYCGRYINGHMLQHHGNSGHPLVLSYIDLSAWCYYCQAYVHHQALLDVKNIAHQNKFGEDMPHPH

[6] = molecular target: T5, Histamine H1 receptor (Homo sapiens, UniProt P35367); experiment: Off-target screen Histamine H1; type: binding; settings: 10 µM; single point, duplicates
T5 construct: purchased Eurofins CEREP SA
T5 sequence (P35367 whole entry): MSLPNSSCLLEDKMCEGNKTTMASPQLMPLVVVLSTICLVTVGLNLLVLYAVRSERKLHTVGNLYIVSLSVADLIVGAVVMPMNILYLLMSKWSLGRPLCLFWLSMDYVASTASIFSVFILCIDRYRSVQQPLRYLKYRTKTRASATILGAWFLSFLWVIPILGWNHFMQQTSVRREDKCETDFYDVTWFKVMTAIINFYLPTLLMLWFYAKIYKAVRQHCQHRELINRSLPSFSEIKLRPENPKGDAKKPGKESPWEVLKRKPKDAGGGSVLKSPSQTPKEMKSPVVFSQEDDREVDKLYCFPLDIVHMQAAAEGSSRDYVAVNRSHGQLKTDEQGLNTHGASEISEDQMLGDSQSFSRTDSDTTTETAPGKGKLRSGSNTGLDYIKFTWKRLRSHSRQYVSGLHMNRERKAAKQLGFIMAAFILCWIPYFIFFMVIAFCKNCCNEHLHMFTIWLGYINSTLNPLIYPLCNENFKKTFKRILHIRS

[7] = molecular target: T6, LPA3 receptor (Homo sapiens, UniProt Q9UBY5); experiment: Off-target screen LPA3 receptor, antagonist mode; type: cell-based; settings: 10 µM, single point, duplicates
T6 construct: purchased Eurofins CEREP SA

[8] = molecular target: T7, MAO-A (Homo sapiens, UniProt P21397); experiment: Off-target screen MAO-A; type: biochemical; settings: 10 µM; single point, duplicates
T7 construct: purchased Eurofins CEREP SA
T7 sequence (P21397 whole entry): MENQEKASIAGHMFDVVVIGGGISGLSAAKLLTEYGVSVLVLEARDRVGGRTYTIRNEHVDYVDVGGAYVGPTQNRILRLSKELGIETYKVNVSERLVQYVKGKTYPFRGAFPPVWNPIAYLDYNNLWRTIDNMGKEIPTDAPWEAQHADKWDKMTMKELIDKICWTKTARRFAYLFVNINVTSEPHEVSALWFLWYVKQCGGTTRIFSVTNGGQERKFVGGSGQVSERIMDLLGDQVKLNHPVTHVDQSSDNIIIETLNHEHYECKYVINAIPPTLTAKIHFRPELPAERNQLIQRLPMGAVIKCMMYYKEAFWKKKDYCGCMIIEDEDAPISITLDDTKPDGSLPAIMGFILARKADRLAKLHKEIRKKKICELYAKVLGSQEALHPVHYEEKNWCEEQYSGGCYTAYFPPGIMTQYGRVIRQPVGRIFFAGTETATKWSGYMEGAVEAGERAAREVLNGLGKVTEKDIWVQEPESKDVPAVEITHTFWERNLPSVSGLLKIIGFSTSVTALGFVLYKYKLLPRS

[9] = molecular target: T8, PPARγ (Homo sapiens, UniProt P37231); experiment: Off-target screen PPARγ, antagonist mode; type: cell-based; settings: 10 µM, single point, duplicates
T8 construct: purchased Eurofins CEREP SA

[10] = molecular target: T9, S1P2 (Homo sapiens, UniProt O95136); experiment: Off-target screen S1P2, agonist mode; type: cell-based; settings: 10 µM, single point, duplicates
T9 construct: purchased Eurofins CEREP SA
T9 sequence (O95136 whole entry): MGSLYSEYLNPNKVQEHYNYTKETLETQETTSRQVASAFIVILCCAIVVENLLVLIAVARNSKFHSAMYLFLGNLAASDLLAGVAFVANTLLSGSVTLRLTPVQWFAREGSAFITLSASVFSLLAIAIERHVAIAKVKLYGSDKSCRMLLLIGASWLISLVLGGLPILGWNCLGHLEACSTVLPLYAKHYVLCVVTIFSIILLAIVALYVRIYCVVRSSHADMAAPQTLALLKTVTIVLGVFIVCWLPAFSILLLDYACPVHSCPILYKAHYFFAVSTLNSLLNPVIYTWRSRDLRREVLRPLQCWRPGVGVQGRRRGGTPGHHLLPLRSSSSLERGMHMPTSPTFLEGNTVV

[11] = molecular target: T10, S1P3 (Homo sapiens, UniProt Q99500); experiment: Off-target screen S1P3, antagonist mode; type: cell-based; settings: 10 µM, single point, duplicates
T10 construct: purchased Eurofins CEREP SA
T10 sequence (Q99500 whole entry): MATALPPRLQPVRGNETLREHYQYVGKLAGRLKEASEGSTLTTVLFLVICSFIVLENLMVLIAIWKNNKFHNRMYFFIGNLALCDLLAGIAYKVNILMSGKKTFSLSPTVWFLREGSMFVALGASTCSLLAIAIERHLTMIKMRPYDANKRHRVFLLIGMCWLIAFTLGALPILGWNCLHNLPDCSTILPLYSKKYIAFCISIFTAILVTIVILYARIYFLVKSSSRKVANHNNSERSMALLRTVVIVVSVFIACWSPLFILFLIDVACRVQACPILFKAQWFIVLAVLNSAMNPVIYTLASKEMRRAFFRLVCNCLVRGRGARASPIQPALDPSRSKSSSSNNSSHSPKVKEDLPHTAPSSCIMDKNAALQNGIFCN

[12] = molecular target: T11, Serotonin transporter (Homo sapiens, UniProt P31645); experiment: Off-target screen Serotonin transporter; type: binding; settings: 10 µM; single point, duplicates
T11 construct: purchased Eurofins CEREP SA
T11 sequence (P31645 whole entry): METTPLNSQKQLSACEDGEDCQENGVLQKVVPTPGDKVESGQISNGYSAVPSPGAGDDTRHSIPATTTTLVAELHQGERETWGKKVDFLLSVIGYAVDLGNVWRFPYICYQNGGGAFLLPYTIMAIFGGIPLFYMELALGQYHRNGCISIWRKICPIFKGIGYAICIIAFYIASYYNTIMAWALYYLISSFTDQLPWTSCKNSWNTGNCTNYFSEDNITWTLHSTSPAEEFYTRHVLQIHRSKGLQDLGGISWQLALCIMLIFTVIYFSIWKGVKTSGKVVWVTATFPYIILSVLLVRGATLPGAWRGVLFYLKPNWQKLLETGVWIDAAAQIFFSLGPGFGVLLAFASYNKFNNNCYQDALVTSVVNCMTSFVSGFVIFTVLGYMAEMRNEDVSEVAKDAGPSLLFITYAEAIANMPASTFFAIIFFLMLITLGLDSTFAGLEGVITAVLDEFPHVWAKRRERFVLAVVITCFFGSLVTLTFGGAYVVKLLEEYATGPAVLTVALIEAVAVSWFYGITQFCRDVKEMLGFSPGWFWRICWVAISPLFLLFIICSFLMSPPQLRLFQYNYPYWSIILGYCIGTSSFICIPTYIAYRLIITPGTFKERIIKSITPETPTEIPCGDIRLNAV

[13] = molecular target: T12, Beta1-adrenoreceptor (Homo sapiens, UniProt P08588); experiment: Off-target screen Beta1-adrenoreceptor; type: binding; settings: 10 µM; single point, duplicates
T12 construct: purchased Eurofins CEREP SA

[14] = molecular target: T13, mu opioid receptor (Homo sapiens, UniProt P35372); experiment: Off-target screen mu opioid receptor; type: binding; settings: 10 µM; single point, duplicates
T13 construct: purchased Eurofins CEREP SA
T13 sequence (P35372 whole entry): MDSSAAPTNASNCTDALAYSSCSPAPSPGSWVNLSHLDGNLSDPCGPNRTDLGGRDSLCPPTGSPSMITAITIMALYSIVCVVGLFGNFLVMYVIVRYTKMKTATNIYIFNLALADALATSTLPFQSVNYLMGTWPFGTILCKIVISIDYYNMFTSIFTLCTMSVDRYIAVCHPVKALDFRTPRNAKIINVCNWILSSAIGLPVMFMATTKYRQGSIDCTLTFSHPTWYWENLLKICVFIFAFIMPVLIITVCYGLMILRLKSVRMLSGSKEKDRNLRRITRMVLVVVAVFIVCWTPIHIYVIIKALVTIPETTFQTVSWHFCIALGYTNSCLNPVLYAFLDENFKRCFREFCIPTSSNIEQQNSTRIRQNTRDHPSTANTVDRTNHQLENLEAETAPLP

[15] = tested on: Nicotinic receptor (muscle); experiment: Off-target screen Nicotinic receptor (muscle); settings: 10 µM; single point, duplicates

O=C(OCc1ccc(OC(F)(F)F)cc1)N1C[C@@H]2CN(C(=O)c3ccc4[nH]nnc4c3)C[C@H]2C1 [Compound 13, (3aS,6aS)-5-(1H-Benzotriazole-5-carbonyl)-hexahydro-pyrrolo[3,4-c]pyrrole-2-carboxylic acid 4-trifluoromethoxy-benzyl ester]
Mic CL m [1]: 10/10/10 µL/m/mg prot | 5HT2B (h) [% inhib] [2]: -3 % inhib | Dopamine D1 receptor (h) [% inhib] [3]: 0 % inhib | GSK-3B (h) [% inhib] [4]: -8 % inhib | HDAC6 (h) [% inhib] [5]: -14 % inhib | Histamine H1 receptor (h) [% inhib] [6]: 5 % inhib | LPA3 receptor (h), antago. mode [% inhib] [7]: 56 % inhib | MAO-A (h) [% inhib] [8]: -1 % inhib | PPARγ (h), antago. mode [% inhib] [9]: 6 % inhib | S1P2 (h), agonist mode [% pos ctrl] [10]: -2 % pos ctrl | S1P3 (h), antago. mode [% inhib] [11]: 47 % inhib | Serotonin transporter (h) [% inhib] [12]: 28 % inhib | Beta1-adrenoreceptor (h) [% inhib] [13]: 2 % inhib | mu opioid receptor (h) [% inhib] [14]: 15 % inhib | Nicotinic receptor (muscle) (h) [% inhib] [15]: 3 % inhib
